Data published in ChEMBL document CHEMBL4602605, “Fluoroquinolones structural and medicinal developments (2013-2018): Where are we now?” (Bioorg Med Chem, 2019).
In brackets after ≈: the same amount, converted by molar mass.

What was measured:
[1] = test system: Pseudomonas aeruginosa; test: Antimicrobial activity against Pseudomonas aeruginosa ATCC 27853 incubated for 18 to 24 hrs by disk diffusion method; type: functional
[2] = test system: Escherichia coli; test: Antimicrobial activity against Escherichia coli ATCC 25922 incubated for 18 to 24 hrs by disk diffusion method; type: functional
[3] = test system: Staphylococcus aureus; test: Antimicrobial activity against Staphylococcus aureus ATCC 25923 incubated for 18 to 24 hrs by disk diffusion method; type: functional
[4] = test system: Bacillus subtilis; test: Antimicrobial activity against Bacillus subtilis 10B incubated for 18 to 24 hrs by disk diffusion method; type: functional
[5] = test system: Pseudomonas aeruginosa; test: Antimicrobial activity against Pseudomonas aeruginosa ATCC 43288 incubated for 18 to 24 hrs by microbroth dilution method; type: functional
[6] = test system: Yersinia pseudotuberculosis; test: Antimicrobial activity against Yersinia pseudotuberculosis ATCC 911 incubated for 18 to 24 hrs by microbroth dilution method; type: functional
[7] = test system: Staphylococcus aureus; test: Antimicrobial activity against Staphylococcus aureus ATCC 25923 incubated for 18 to 24 hrs by microbroth dilution method; type: functional
[8] = test system: Enterococcus faecalis; test: Antimicrobial activity against Enterococcus faecalis ATCC 29212 incubated for 18 to 24 hrs by microbroth dilution method; type: functional
[9] = test system: Bacillus cereus; test: Antimicrobial activity against Bacillus cereus 709 Roma incubated for 18 to 24 hrs by microbroth dilution method; type: functional
[10] = test system: Mycolicibacterium smegmatis; test: Antimicrobial activity against Mycobacterium smegmatis ATCC 607 incubated for 48 to 72 hrs by microbroth dilution method; type: functional
[11] = test system: Staphylococcus aureus; test: Antimicrobial activity against methicillin-resistant Staphylococcus aureus ATCC 25923 by microdilution method; type: functional
[12] = test system: Escherichia coli; test: Antimicrobial activity against Escherichia coli ATCC […] by microdilution method; type: functional
[13] = test system: Escherichia coli; test: Antimicrobial activity against multidrug resistance Escherichia coli ATCC 35218 by microdilution method; type: functional
[14] = test system: Staphylococcus aureus; test: Antimicrobial activity against Staphylococcus aureus ATCC 29213 by microdilution method; type: functional
[15] = test system: Helicobacter pylori; test: Antimicrobial activity against Helicobacter pylori clinical isolate 1 after 7 days by two-fold agar dilution method; type: functional; settings: clinical isolate 1, 168 h
[16] = test system: Helicobacter pylori; test: Antimicrobial activity against Helicobacter pylori clinical isolate 2 after 7 days by two-fold agar dilution method; type: functional; settings: clinical isolate 2, 168 h
[17] = test system: PC-3; test: Growth inhibition of human PC3 cells by MTT assay; type: functional, cell-based
[18] = test system: Aspergillus clavatus; test: Antifungal activity against Aspergillus clavatus after overnight incubation by agar well diffusion method; type: functional
[19] = test system: Staphylococcus aureus; test: Antimicrobial activity against methicillin-susceptible Staphylococcus aureus ATCC 29213 incubated for 16 hrs by CLSI method; type: functional; settings: ATCC 29213, 16 h
[20] = test system: Staphylococcus aureus; test: Antimicrobial activity against healthcare-acquired methicillin-resistant Staphylococcus aureus NRS70 incubated for 16 hrs by CLSI method; type: functional; settings: NRS70, 16 h
[21] = test system: Candida albicans; test: Antifungal activity against Candida albicans after overnight incubation by agar well diffusion method; type: functional
[22] = test system: Mycobacterium tuberculosis; test: Antimicrobial activity against Mycobacterium tuberculosis H37Rv incubated for 10 days by microbroth dilution method; type: functional; settings: 240 h

## CCn1cc(C(=O)O)c(=O)c2cc(F)c(Cl)cc21
[1]
  MIC: 116 µg/mL (≈ 432 µM)
[2]
  MIC: 0.355 µg/mL (≈ 1.32 µM)
[3]
  MIC: 0.535 µg/mL (≈ 1.98 µM)
[4]
  MIC: 0.125 µg/mL (≈ 0.464 µM)

## CCn1cc(C(=O)O)c(=O)c2cc(F)c(Nn3c(=O)cc[nH]c3=O)c(F)c21
[1]
  MIC: > 500 µg/mL
[2]
  MIC: 120 µg/mL (≈ 317 µM)
[3]
  MIC: 310 µg/mL (≈ 819 µM)
[4]
  MIC: > 500 µg/mL

## CCn1cc(C(=O)O)c(=O)c2cc(F)c(N3CCN(Cn4nc(CN5CCN(c6ccc([N+](=O)[O-])cc6)CC5)n(-c5ccccc5)c4=S)CC3)cc21
[5]
  MIC: 0.03 to 0.24 µg/mL (≈ 0.0412 to 0.33 µM)
[6]
  MIC: 0.06 µg/mL (≈ 0.0824 µM)
[7]
  MIC: 0.24 to 0.48 µg/mL (≈ 0.33 to 0.66 µM)
[8]
  MIC: 0.122 to 0.25 µg/mL (≈ 0.168 to 0.343 µM)
[9]
  MIC: 0.12 to 0.24 µg/mL (≈ 0.165 to 0.33 µM)
[10]
  MIC: 0.244 to 0.25 µg/mL (≈ 0.335 to 0.343 µM)

## CCN1CCN(N(Cn2nc3c(F)cc4c(=O)c(C(=O)O)cn(C5CC5)c4n3c2=O)N2CCN(CC)CC2)CC1
[11]
  MIC: ≤ 0.5 µg/mL
[12]
  MIC: ≤ 0.125 µg/mL
[13]
  MIC: ≤ 0.25 µg/mL
[14]
  MIC: ≤ 0.125 µg/mL

## Cc1ccc(-n2nnc3c4c(cc(F)c32)c(=O)c(C(=O)O)cn4C2CC2)cc1
[15]
  MIC: 5 µg/mL (≈ 13.2 µM)
[16]
  MIC: 1.3 µg/mL (≈ 3.44 µM)

## O=C(O)c1cn(C2CC2)c2c(cc(F)c3nn(CN(N4CCCCC4)N4CCCCC4)c(=O)n32)c1=O
[11]
  MIC: ≤ 8 µg/mL
[12]
  MIC: ≤ 1 µg/mL
[13]
  MIC: ≤ 4 µg/mL
[14]
  MIC: ≤ 1 µg/mL

## CCn1cc(C(=O)O)c(=O)c2cc(F)c(N3CCN(Cn4nc(CN5CCN(c6ccc([N+](=O)[O-])cc6)CC5)n(-c5ccccc5)c4=O)CC3)cc21
[5]
  MIC: 0.24 to 0.48 µg/mL (≈ 0.337 to 0.674 µM)
[6]
  MIC: 0.03 to 0.25 µg/mL (≈ 0.0421 to 0.351 µM)
[7]
  MIC: 0.24 to 0.48 µg/mL (≈ 0.337 to 0.674 µM)
[8]
  MIC: 0.122 µg/mL (≈ 0.171 µM)
[9]
  MIC: 0.03 to 0.25 µg/mL (≈ 0.0421 to 0.351 µM)
[10]
  MIC: 0.244 to 0.25 µg/mL (≈ 0.343 to 0.351 µM)

## COc1c(N2CCN(C)CC2)c(F)cc2c(=O)c(C(=O)N/N=C\c3cc(Br)ccc3O)cn(C3CC3)c12
[17]
  IC50: 12 µg/mL (≈ 21 µM)
[18]
  inhibition zone (IZ): 12 mm

## CN1CCN(N(Cn2nc3c(F)cc4c(=O)c(C(=O)O)cn(C5CC5)c4n3c2=O)N2CCN(C)CC2)CC1
[11]
  MIC: ≤ 2 µg/mL
[12]
  MIC: ≤ 0.25 µg/mL
[13]
  MIC: ≤ 2 µg/mL
[14]
  MIC: ≤ 0.25 µg/mL

## Nc1c(Nc2ccc(F)cc2)c(F)cc2c(=O)c(C(=O)O)cn(C3CC3)c12
[15]
  MIC: 2.5 µg/mL (≈ 6.73 µM)
[16]
  MIC: 5 µg/mL (≈ 13.5 µM)

## COc1ccc(-n2nnc3c4c(cc(F)c32)c(=O)c(C(=O)O)cn4C2CC2)cc1
[15]
  MIC: 2.5 µg/mL (≈ 6.34 µM)
[16]
  MIC: 1.3 µg/mL (≈ 3.3 µM)

## CCn1cc(C(=O)O)c(=O)c2cc(F)c(Nc3ncccn3)cc21
[1]
  MIC: > 500 µg/mL
[2]
  MIC: 510 µg/mL (≈ 1550 µM)
[3]
  MIC: 515 µg/mL (≈ 1570 µM)
[4]
  MIC: > 500 µg/mL

## CCn1cc(C(=O)O)c(=O)c2cc(F)c(NNc3n[nH]c(N)n3)c(F)c21
[1]
  MIC: > 500 µg/mL
[2]
  MIC: 390 µg/mL (≈ 1070 µM)
[3]
  MIC: 240 µg/mL (≈ 657 µM)
[4]
  MIC: > 500 µg/mL

## CCn1cc(C(=O)O)c(=O)c2cc(F)c(-n3cc(CO[C@H]4O[C@@H](C)[C@H](OC(C)=O)[C@@H](OC(C)=O)[C@H]4OC(C)=O)nn3)c(F)c21
[11]
  MIC: ≤ 16 µg/mL
[12]
  MIC: ≤ 4 µg/mL
[13]
  MIC: ≤ 16 µg/mL
[14]
  MIC: ≤ 4 µg/mL

## COc1c(N2CC3CCCCC3C2)c(F)cc2c(=O)c(C(=O)N3CCSC3)cn(C3CC3)c12 (configuration not stated)
[19]
  MIC90: 0.79 µg/mL (≈ 1.68 µM)
[20]
  MIC90: 0.79 µg/mL (≈ 1.68 µM)

## COc1c(N2CCN(C)CC2)c(F)cc2c(=O)c(C(=O)N/N=C\c3ccccc3)cn(C3CC3)c12
[17]
  IC50: 16.3 µg/mL (≈ 34.1 µM)
[18]
  inhibition zone (IZ): 11 mm

## COc1c(N2CCN(C)CC2)c(F)cc2c(=O)c(C(=O)N/N=C\c3cccc([N+](=O)[O-])c3)cn(C3CC3)c12
[18]
  inhibition zone (IZ): 10 mm
[21]
  inhibition zone (IZ): 12 mm

## CCn1cc(C(=O)O)c(=O)c2cc(F)c(F)cc21
[1]
  MIC: 138 µg/mL (≈ 547 µM)
[2]
  MIC: 24.6 µg/mL (≈ 97.3 µM)
[3]
  MIC: 369 µg/mL (≈ 1460 µM)
[4]
  MIC: 29.6 µg/mL (≈ 117 µM)

## CCO/N=C1/CN(CCCn2cc(CN3CCCC4CN(c5c(F)cc6c(=O)c(C(=O)O)cn(C7CC7)c6c5OC)CC43)nn2)c2ccc(F)cc21 (configuration not stated)
[22]
  MIC: 12.5 µg/mL (≈ 17.4 µM)

## COc1c(N2CC3=CCCCC3C2)c(F)cc2c(=O)c(C(=O)N3CCSC3)cn(C3CC3)c12 (configuration not stated)
[19]
  MIC90: 6.3 µg/mL (≈ 13.4 µM)
[20]
  MIC90: 6.3 µg/mL (≈ 13.4 µM)

## COc1c(F)c(F)cc2c(=O)c(C(=O)N3CCSC3)cn(C3CC3)c12
[19]
  MIC90: > 201 µg/mL
[20]
  MIC90: > 201 µg/mL

## COc1c(N2CC3CCCCC3C2)c(F)cc2c(=O)c(C(=O)Nc3nccs3)cn(C3CC3)c12 (configuration not stated)
[19]
  MIC90: > 201 µg/mL
[20]
  MIC90: > 201 µg/mL

## Nc1c(Nc2ccccc2)c(F)cc2c(=O)c(C(=O)O)cn(C3CC3)c12
[15]
  MIC: 0.6 µg/mL (≈ 1.7 µM)
[16]
  MIC: 1.3 µg/mL (≈ 3.68 µM)

## CCn1cc(C(=O)O)c(=O)c2cc(F)c(Nn3c(=O)[nH]cc(F)c3=O)c(F)c21
[1]
  MIC: > 500 µg/mL
[2]
  MIC: 120 µg/mL (≈ 303 µM)
[3]
  MIC: 390 µg/mL (≈ 984 µM)
[4]
  MIC: > 500 µg/mL

## COc1c(N2CCOCC2)c(F)cc2c(=O)c(C(=O)Nc3nccs3)cn(C3CC3)c12
[19]
  MIC90: > 201 µg/mL
[20]
  MIC90: > 201 µg/mL
